Consider 19 compounds from publication PMC4162805 (European journal of medicinal chemistry, 2014).

Structures are written as SMILES. “Also recorded” adds a separate entry of the source.

Assay [1] has as its target T1, κ-opioid receptor (KOR) (Homo sapiens, UniProt P41145). Format: binding.
The target of assay [2] is T1, κ-opioid receptor (KOR). The following applies: previously observed; cited from earlier work.
The target in another assay is hKOR receptor (Homo sapiens, UniProt P41145). Nature of the assay: cell-based.
Another assay has as its target δ-opioid receptor (DOR) (Homo sapiens, UniProt P41143). Nature of the assay: Radioligand binding at DOR against [3H]DADLE.

Sequence of hKOR receptor (P41145 whole entry): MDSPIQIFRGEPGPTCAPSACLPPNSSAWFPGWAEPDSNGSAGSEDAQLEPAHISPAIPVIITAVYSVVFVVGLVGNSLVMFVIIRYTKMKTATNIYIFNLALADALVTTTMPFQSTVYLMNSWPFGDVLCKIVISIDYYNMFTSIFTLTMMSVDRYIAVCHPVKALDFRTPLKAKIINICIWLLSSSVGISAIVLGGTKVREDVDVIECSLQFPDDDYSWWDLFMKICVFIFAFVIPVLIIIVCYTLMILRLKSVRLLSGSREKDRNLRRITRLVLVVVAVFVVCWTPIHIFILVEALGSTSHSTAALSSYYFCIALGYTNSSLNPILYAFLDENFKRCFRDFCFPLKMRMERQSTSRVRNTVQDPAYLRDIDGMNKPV
T1 sequence (P41145 whole entry): as above
Sequence of δ-opioid receptor (DOR) (P41143 whole entry): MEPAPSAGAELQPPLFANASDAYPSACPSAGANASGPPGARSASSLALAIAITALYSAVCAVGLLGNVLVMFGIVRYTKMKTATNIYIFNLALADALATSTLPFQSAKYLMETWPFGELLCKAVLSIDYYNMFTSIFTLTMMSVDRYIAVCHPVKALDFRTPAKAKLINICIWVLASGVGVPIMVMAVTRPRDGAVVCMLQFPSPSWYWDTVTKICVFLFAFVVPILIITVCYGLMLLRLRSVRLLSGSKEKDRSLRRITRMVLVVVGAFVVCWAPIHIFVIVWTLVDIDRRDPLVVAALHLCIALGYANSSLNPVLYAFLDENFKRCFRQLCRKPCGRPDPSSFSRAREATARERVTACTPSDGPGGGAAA

As to `COC(=O)[C@@H]1C[C@H](OC(=O)/C=C/c2ccc(OC)cc2)C(=O)[C@H]2[C@@]1(C)CC[C@H]1C(=O)O[C@H](c3ccoc3)C[C@]21C` [5c, 2-O-(4″-Methoxycinnamoyl)salvinorin B], on κ-opioid receptor (KOR) [1], the “Selectivity DOR/KOR” value is given as more than 74 and the “Selectivity MOR/KOR” value is more than 74.
With `COC(=O)[C@@H]1C[C@H](OC(=O)/C=C/c2ccccc2[N+](=O)[O-])C(=O)[C@H]2[C@@]1(C)CC[C@H]1C(=O)O[C@H](c3ccoc3)C[C@]21C` [5h, 2-O-(2″-Nitrocinnamoyl)salvinorin B], at κ-opioid receptor (KOR) [1], the “Selectivity DOR/KOR” value is listed as more than 67 and the “Selectivity MOR/KOR” value is more than 67.
Regarding `COC(=O)[C@@H]1C[C@H](OC(=O)CSC#N)C(=O)[C@H]2[C@@]1(C)CC[C@H]1C(=O)O[C@H](c3ccoc3)C[C@]21C` [RB-64, 22-thiocyanatosalvinorin A], on κ-opioid receptor (KOR) [2], the “wash-resistant irreversible binding at KOR” value is given as “wash-resistant irreversible binding”.
For `COC(=O)[C@@H]1C[C@H](OC(=O)/C=C/c2ccc3c(c2)OCO3)C(=O)[C@H]2[C@@]1(C)CC[C@H]1C(=O)O[C@H](c3ccoc3)C[C@]21C` [5g, 2-O-(3″,4″-Dioxymethylenecinnamoyl)salvinorin B], the “Selectivity DOR/KOR” value at κ-opioid receptor (KOR) [1] is more than 31.
`C=C(C)C(=O)O[C@H]1C[C@@H](C(=O)OC)[C@]2(C)CC[C@H]3C(=O)O[C@H](c4ccoc4)C[C@]3(C)[C@H]2C1=O` [4b, 2-O-Methacryloylsalvinorin B]: on κ-opioid receptor (KOR) [1], the “Selectivity MOR/KOR” value is given as more than 293.
Consider `COC(=O)[C@@H]1C[C@H](OC(=O)/C=C/c2ccc([N+](=O)[O-])cc2)C(=O)[C@H]2[C@@]1(C)CC[C@H]1C(=O)O[C@H](c3ccoc3)C[C@]21C` [5i, 2-O-(4″-Nitrocinnamoyl)salvinorin B], for which, at κ-opioid receptor (KOR) [1], the “Selectivity DOR/KOR” value is more than 35 and the “Selectivity MOR/KOR” value is given as more than 35.
`COC(=O)[C@@H]1C[C@H](OC(=O)/C=C/c2cc(C(F)(F)F)ccc2C(F)(F)F)C(=O)[C@H]2[C@@]1(C)CC[C@H]1C(=O)O[C@H](c3ccoc3)C[C@]21C` [5l, 2-O-[2″,5″-bis(Trifluoromethyl)cinnamoyl]salvinorin B]: at κ-opioid receptor (KOR) [1], the “Selectivity DOR/KOR” value is less than 0.58 and the “affinity for KOR (in words)” value is reported as “no substantial affinity”.
As for `C=C(C)CC(=O)O[C@H]1C[C@@H](C(=O)OC)[C@]2(C)CC[C@H]3C(=O)O[C@H](c4ccoc4)C[C@]3(C)[C@H]2C1=O` [4d, 2-O-(3′-Methylbut-3′-enoyl)salvinorin B], on κ-opioid receptor (KOR) [1], the “Selectivity DOR/KOR” value is on record as more than 1666 and the “fold increased KOR affinity compared to 4a” value turned out to be 3 fold.
With `C=CC(=O)O[C@H]1C[C@@H](C(=O)OC)[C@]2(C)CC[C@H]3C(=O)O[C@H](c4ccoc4)C[C@]3(C)[C@H]2C1=O` [4a, 2-O-Acryloylsalvinorin B], on κ-opioid receptor (KOR) [1], the “Selectivity DOR/KOR” value is on record as more than 552 and the “fold reduced KOR affinity compared to 1” value is on record as 6 fold. Further, the “fold lower cAMP inhibition level (efficacy) than 1” value on hKOR receptor is 380 ×.
For orientation: IC50 means the concentration needed to halve the response being measured. Higher therefore signals lower potency. For the compound `COC(=O)[C@@H]1C[C@H](OC(=O)/C=C/c2ccccc2)C(=O)[C@H]2[C@@]1(C)CC[C@H]1C(=O)O[C@H](c3ccoc3)C[C@]21C` [5a, 2-O-Cinnamoylsalvinorin B], at κ-opioid receptor (KOR) [1], the “fold increased KOR affinity compared to 4a” value amounted to 2 fold. On hKOR receptor, half-maximal inhibition (IC50) was put at 7 nM and the “fold lower cAMP inhibition level (efficacy) than 1” value worked out at 20 ×.
Turning to `COC(=O)[C@@H]1C[C@H](OC(=O)C=C(C)C)C(=O)[C@H]2[C@@]1(C)CC[C@H]1C(=O)O[C@H](c3ccoc3)C[C@]21C` [4c, 2-O-(3′,3′-Dimethylacryloyl)salvinorin B], the “fold reduced KOR affinity compared to 4a” value on κ-opioid receptor (KOR) [1] is reported as 21 fold.
With `COC(=O)[C@@H]1C[C@H](OC(=O)/C=C/c2ccccc2OC)C(=O)[C@H]2[C@@]1(C)CC[C@H]1C(=O)O[C@H](c3ccoc3)C[C@]21C` [5b, 2-O-(2″-Methoxycinnamoyl)salvinorin B], at κ-opioid receptor (KOR) [1], the “Selectivity DOR/KOR” value was more than 154 and the “Selectivity MOR/KOR” value is more than 154.
With `COC(=O)[C@@H]1C[C@H](OC(=O)/C=C/c2cc(OC)c(OC)c(OC)c2)C(=O)[C@H]2[C@@]1(C)CC[C@H]1C(=O)O[C@H](c3ccoc3)C[C@]21C` [5f, 2-O-(3″,4″,5″-Trimethoxycinnamoyl)salvinorin B], the “affinity for DOR (in words)” value at δ-opioid receptor (DOR) is “no appreciable affinity”. The “affinity for KOR (in words)” value at κ-opioid receptor (KOR) [1] is recorded as “no appreciable affinity; also recorded: no substantial affinity”.
For the compound `COC(=O)[C@@H]1C[C@H](OC(=O)/C=C/c2cc(OC)ccc2OC)C(=O)[C@H]2[C@@]1(C)CC[C@H]1C(=O)O[C@H](c3ccoc3)C[C@]21C` [5d, 2-O-(2″,5″-Dimethoxycinnamoyl)salvinorin B], at κ-opioid receptor (KOR) [1], the “Selectivity DOR/KOR” value was more than 17 and the “Selectivity MOR/KOR” value is more than 17.
Turning to `COC(=O)[C@@H]1C[C@H](OC(=O)/C=C/c2ccccc2C(F)(F)F)C(=O)[C@H]2[C@@]1(C)CC[C@H]1C(=O)O[C@H](c3ccoc3)C[C@]21C` [5j, 2-O-(2″-Trifluoromethylcinnamoyl)salvinorin B], on κ-opioid receptor (KOR) [1], the “Selectivity DOR/KOR” value is reported as more than 77 and the “Selectivity MOR/KOR” value is given as more than 77.
With `COC(=O)[C@@H]1C[C@H](OC(=O)/C=C/c2ccc(OC)cc2OC)C(=O)[C@H]2[C@@]1(C)CC[C@H]1C(=O)O[C@H](c3ccoc3)C[C@]21C` [5e, 2-O-(2″,4″-Dimethoxycinnamoyl)salvinorin B], at κ-opioid receptor (KOR) [1], the “Selectivity DOR/KOR” value is recorded as more than 62 and the “Selectivity MOR/KOR” value is given as more than 62.
Regarding `C/C=C(\C)C(=O)O[C@H]1C[C@@H](C(=O)OC)[C@]2(C)CC[C@H]3C(=O)O[C@H](c4ccoc4)C[C@]3(C)[C@H]2C1=O` [4g, 2-O-(2′,3′-Dimethylacryloyl)salvinorin B], at κ-opioid receptor (KOR) [1], the “Selectivity DOR/KOR” value was more than 65, the “Selectivity MOR/KOR” value was more than 65 and the “fold reduced KOR affinity compared to 4a” value is reported as 8 fold.
Take `C/C=C/C(=O)O[C@H]1C[C@@H](C(=O)OC)[C@]2(C)CC[C@H]3C(=O)O[C@H](c4ccoc4)C[C@]3(C)[C@H]2C1=O` [4e, 2-O-Crotonoylsalvinorin B]: the “Selectivity DOR/KOR” value at κ-opioid receptor (KOR) [1] is given as more than 395.
`COC(=O)[C@@H]1C[C@H](OC(=O)/C=C/c2cccnc2)C(=O)[C@H]2[C@@]1(C)CC[C@H]1C(=O)O[C@H](c3ccoc3)C[C@]21C` [5m, 2-O-[3′-(3″-Pyridyl)acryloyl]salvinorin B]: at κ-opioid receptor (KOR) [1], the “Selectivity DOR/KOR” value is listed as less than 0.48, the “Selectivity MOR/KOR” value is reported as less than 0.03 and the “affinity for KOR (in words)” value is “no substantial affinity”.
